Among the data in PubChem BioAssay (NCI) are GI50 and TGI values, retold here.

“And” between values parts separate entries of the source, which are not always exact repeats. Equal entries are not always repeated.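 1) Cells in 96-well plates. 2) Compound, 48 h, 5 concentrations. 3) Linear interpolation between surrounding doses. 4) Unreached endpoint = highest concentration. GI50 is the concentration that inhibits growth by half. At the TGI there is no net growth.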

Test systems include MCF7 breast; MDA-MB-231 breast; RPMI-8226 leukemia; NCI-H23 lung; MALME-3M melanoma; PC-3 prostate; CAKI-1 renal; SK-OV-3 ovarian; SF-295 CNS; EKVX NSCLC.
Common to all, as to assay: NCI-60 cell line screen, 48 h

For the compound `Cc1cc2cc3cc(C)c(N(C)C)cc3[n+](C)c2cc1N(C)C`, the GI50 in the experiment on MCF7 breast is 2.38 µM; with MDA-MB-231 breast, 3.17 µM; in the experiment on RPMI-8226 leukemia, 4.54 µM; in the experiment on NCI-H23 lung, 2.77 µM; in the experiment on MALME-3M melanoma it was 3.6 µM; in the experiment on PC-3 prostate, 2.46 µM. For the same compound, the GI50 in the experiment on CAKI-1 renal is 2.7 µM; in the experiment with SK-OV-3 ovarian, 5.05 µM; in the experiment with SF-295 CNS, 2.53 µM. For the same compound, the TGI in the experiment on MCF7 breast was over 100 µM; in the experiment with MDA-MB-231 breast, 9 µM; in the experiment on RPMI-8226 leukemia, over 100 µM; with NCI-H23 lung, 31.2 µM; in the experiment on MALME-3M melanoma, 19.4 µM; in the experiment on PC-3 prostate it was 33.8 µM. Moreover, the TGI with CAKI-1 renal is over 100 µM; in the experiment on SK-OV-3 ovarian, over 100 µM; in the experiment on SF-295 CNS, 14 µM.
On to `Cn1cc(C2=C(c3cn(CCO)c4ccccc34)C(=O)NC2=O)c2ccccc21`, for which the GI50 in the experiment with MCF7 breast was 1.24 µM; with MDA-MB-231 breast, 5.98 µM; in the experiment with RPMI-8226 leukemia, 5.33 µM; in the experiment with NCI-H23 lung, 4.75 µM; in the experiment on MALME-3M melanoma, 6.9 µM; in the experiment on PC-3 prostate, 4.59 µM. The GI50 with CAKI-1 renal was 3.79 µM; with SK-OV-3 ovarian it was 2.61 µM; with SF-295 CNS it was 1.18 µM. For the same compound, the TGI in the experiment with MCF7 breast was over 25 µM; with MDA-MB-231 breast, over 22.4 µM; in the experiment on RPMI-8226 leukemia it was 16 µM; in the experiment on NCI-H23 lung it was 15.2 µM; in the experiment with MALME-3M melanoma, 17.5 µM; with PC-3 prostate, over 25 µM. Moreover, the results for the TGI in the experiment with CAKI-1 renal, with SK-OV-3 ovarian and in the experiment on SF-295 CNS were over 24.1 µM, over 21.9 µM and 7.58 µM, respectively.
In the case of `Clc1ccc(/C=C/c2cc(N3CCOCC3)c3cc(Cl)c(Cl)cc3n2)cc1`, the GI50 with MCF7 breast is over 100 µM; in the experiment on MDA-MB-231 breast, 11.1 µM; with RPMI-8226 leukemia, 0.311 µM; with NCI-H23 lung it was over 100 µM; in the experiment on MALME-3M melanoma it was over 100 µM; in the experiment on PC-3 prostate, 1.61 µM. Further, the GI50 with CAKI-1 renal, in the experiment with SK-OV-3 ovarian and with SF-295 CNS was over 100 µM in each case. Moreover, the TGI in the experiment on MCF7 breast is over 100 µM; in the experiment with MDA-MB-231 breast, over 100 µM; with RPMI-8226 leukemia, 1.09 µM; with NCI-H23 lung, over 100 µM; in the experiment with MALME-3M melanoma, over 100 µM; with PC-3 prostate, over 100 µM. The TGI with CAKI-1 renal, with SK-OV-3 ovarian and in the experiment on SF-295 CNS was over 100 µM throughout.
In the case of `c1ccc2c(c1)sc1c3cnccc3ccc21`, the TGI in the experiment with MCF7 breast, in the experiment on MDA-MB-231 breast, with RPMI-8226 leukemia, in the experiment on NCI-H23 lung, in the experiment with EKVX NSCLC and in the experiment with MALME-3M melanoma was over 100 µM throughout. The TGI with CAKI-1 renal, in the experiment with SK-OV-3 ovarian and in the experiment with SF-295 CNS was over 100 µM in each case.
Consider `CC(=O)O[C@@]12CO[C@@H]1C[C@H](O)[C@@]1(C)C(=O)[C@H](O)C3=C(C)[C@@H](OC(=O)[C@H](O)[C@@H](NC(=O)OC(C)(C)C)c4ccccc4)C[C@@](O)([C@@H](OC(=O)c4ccccc4)[C@H]21)C3(C)C`, for which the TGI with MCF7 breast is 78.4 µM; with RPMI-8226 leukemia it was 15.6 µM; with NCI-H23 lung, over 67.2 µM; in the experiment on PC-3 prostate it was over 100 µM; in the experiment with CAKI-1 renal, 81.8 µM; in the experiment with SK-OV-3 ovarian, 0.0491 µM. For the same compound, the TGI in the experiment with SF-295 CNS was 0.133 µM. Also, the GI50 is 0.0057 µM and 0.00374 µM in the experiment with RPMI-8226 leukemia; 0.0192 µM in the experiment on NCI-H23 lung; 0.0464 µM in the experiment with EKVX NSCLC; 0.146 µM with CAKI-1 renal; 0.0521 µM and < 0.0174 µM with SK-OV-3 ovarian; 0.0123 µM and 0.0146 µM in the experiment on SF-295 CNS.
Regarding `Cn1cc(C2=C(c3cccc(N)c3)C(=O)NC2=O)c2ccccc21`, the GI50 was 4.19 µM in the experiment on MCF7 breast; 4.52 µM in the experiment with MDA-MB-231 breast; over 21.4 µM in the experiment with RPMI-8226 leukemia; 20.9 µM in the experiment with NCI-H23 lung; over 25 µM in the experiment on MALME-3M melanoma; 14.8 µM in the experiment on PC-3 prostate. In addition, the GI50 was 13 µM in the experiment with CAKI-1 renal, over 19 µM in the experiment with SK-OV-3 ovarian and 3.93 µM in the experiment on SF-295 CNS. Further, the TGI in the experiment on MCF7 breast, in the experiment on MDA-MB-231 breast, in the experiment on RPMI-8226 leukemia, with NCI-H23 lung, in the experiment on MALME-3M melanoma and in the experiment on PC-3 prostate was over 25 µM throughout. Further, the TGI in the experiment on CAKI-1 renal, with SK-OV-3 ovarian and in the experiment with SF-295 CNS was over 25 µM in each case.
With `N#Cc1cccc(OCc2nc(N)nc(N)c2-c2ccc(Cl)c(Cl)c2)c1`, the GI50 was 3.09 µM in the experiment on MCF7 breast; 6.13 µM in the experiment with MDA-MB-231 breast; 4.65 µM with RPMI-8226 leukemia; 2.42 µM in the experiment on NCI-H23 lung; 0.604 µM in the experiment on PC-3 prostate; 0.893 µM with CAKI-1 renal. In addition, the values for the GI50 with SK-OV-3 ovarian and in the experiment with SF-295 CNS were 9.56 µM and 0.46 µM, respectively. The TGI in the experiment with MCF7 breast, in the experiment on MDA-MB-231 breast, in the experiment on RPMI-8226 leukemia, with NCI-H23 lung, with PC-3 prostate and in the experiment with CAKI-1 renal was over 100 µM each time. The TGI was over 100 µM with SK-OV-3 ovarian and 14.3 µM in the experiment on SF-295 CNS.
For `C/C=C/C1=C(Cl)C(=O)[C@@H](Cl)[C@@]1(O)C(=O)OC`, the TGI in the experiment on MCF7 breast stood at 3.89 µM; in the experiment with RPMI-8226 leukemia, 29 µM; in the experiment with NCI-H23 lung, 10.1 µM; in the experiment on EKVX NSCLC, 9.27 µM; in the experiment on MALME-3M melanoma, 6.21 µM; with CAKI-1 renal, 8.4 µM. Besides, the TGI with SK-OV-3 ovarian worked out at 30.6 µM; in the experiment on SF-295 CNS it was 27.9 µM.
Consider `Cc1cc(Cl)cc2c(N=Nc3ccccc3[N+](=O)[O-])c(O)[nH]c12`, for which the TGI in the experiment with MCF7 breast, in the experiment with MDA-MB-231 breast, with RPMI-8226 leukemia, in the experiment with NCI-H23 lung, with EKVX NSCLC and with PC-3 prostate was over 100 µM in each case. For the same compound, the TGI in the experiment on CAKI-1 renal, in the experiment on SK-OV-3 ovarian and in the experiment on SF-295 CNS was over 100 µM in each case.
Consider `O=c1cc(-c2ccccc2)oc2cc(O)c(O)c(O)c12`, for which the GI50 in the experiment on MDA-MB-231 breast was 14.1 µM; with RPMI-8226 leukemia, 9.27 µM; with NCI-H23 lung it was 12.7 µM; in the experiment on EKVX NSCLC it was 18.9 µM; with PC-3 prostate, 17.4 µM; in the experiment on CAKI-1 renal it was 4.57 µM. The GI50 in the experiment on SK-OV-3 ovarian is 59.6 µM; with SF-295 CNS it was 11.7 µM. Moreover, the TGI in the experiment with MDA-MB-231 breast was 36.8 µM; with RPMI-8226 leukemia, over 100 µM; in the experiment on NCI-H23 lung it was 39.7 µM; in the experiment with EKVX NSCLC, 63.3 µM; in the experiment with PC-3 prostate it was over 100 µM; with CAKI-1 renal, 19 µM. The values for the TGI with SK-OV-3 ovarian and with SF-295 CNS were over 100 µM and 46.4 µM, respectively.
